Consider 27 molecules from patent publication US7981912B2, “Indole acetic acids exhibiting CRTH2 receptor antagonism and uses thereof” (Wyeth LLC, priority 2004, dated 2011).

A value given as a limit tells only on which side of the number the result lay.

This assay addresses T1, human CRTH2 (Homo sapiens, UniProt Q9Y5Y4).
T1 sequence (Q9Y5Y4 1-395): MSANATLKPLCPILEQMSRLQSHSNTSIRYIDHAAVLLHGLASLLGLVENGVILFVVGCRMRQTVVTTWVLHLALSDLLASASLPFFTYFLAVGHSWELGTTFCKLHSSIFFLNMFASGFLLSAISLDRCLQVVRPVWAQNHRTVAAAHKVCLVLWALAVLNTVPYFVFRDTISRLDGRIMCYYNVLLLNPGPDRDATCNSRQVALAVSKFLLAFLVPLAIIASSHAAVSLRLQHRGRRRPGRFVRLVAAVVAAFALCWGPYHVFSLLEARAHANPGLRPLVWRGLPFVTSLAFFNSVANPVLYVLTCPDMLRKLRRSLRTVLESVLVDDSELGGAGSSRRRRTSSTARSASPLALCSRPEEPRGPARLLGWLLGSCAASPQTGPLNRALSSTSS
As to the kind of experiment: CRTH-2 binding assay (scintillation proximity assay, inhibition of 3H-PGD2 binding). Also noted: expressed in transfected cells; host or cells: HEK 293EBNA-hCRTH2 (membrane preparation). The note with it: inhibition of 3H-PGD2 (3.6 nM) binding to HEK 293EBNA-hCRTH2 membranes; Ki calculated from IC50. A digest of the protocol: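 Membranes from HEK 293EBNA cells stably expressing human CRTH2 (~20 μg protein/100 μL) with SPA beads and 3.6 nM 3H-PGD2 in 10 mM Hepes pH 7.4, 1 mM EDTA, 10 mM MnCl2, glycerol, 2 h at room temperature, seven compound concentrations in triplicate. Nonspecific binding defined with indomethacin; IC50 converted to Ki using Kd and radioligand concentration.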

The Ki is the equilibrium dissociation constant of an inhibitor or competing ligand from its target. Take `Cc1ccc2c(c1)c(C1c3ccccc3S(=O)(=O)N1Cc1ccc(F)cc1)cn2CC(=O)O` (stereo not drawn) [Example 49, {3-[2-(4-Fluoro-benzyl)-1,1-dioxo-2,3-dihydro-1H—1λ^6-benzo[d]isothiazol-3-yl]-5-methyl-indol-1-yl}-acetic acid]: the Ki was < 1000 nM. `COc1ccc2c(c1)c(C1c3ccccc3S(=O)(=O)N1CCc1ccccc1)cn2CC(=O)O` (stereo not drawn) [Example 55, [3-(1,1-Dioxo-2-phenethyl-2,3-dihydro-1H-1λ^6-benzo[d]isothiazol-3-yl)-5-methoxy-indol-1-yl]-acetic acid]: the Ki is < 10000 nM.

As to `O=C(O)Cn1cc(C2NS(=O)(=O)c3ccccc32)c2ccc(Cl)cc21` (stereo not drawn) [Example 12, [6-Chloro-3-(1,1-dioxo-2,3-dihydro-1H-1λ^6-benzo[d]isothiazol-3-yl)-indol-1-yl]-acetic acid], the Ki was < 1000 nM. On to `O=C(O)Cn1cc(C2NS(=O)(=O)c3ccccc32)c2cc(Br)ccc21` (stereo not drawn) [Example 8, [5-Bromo-3-(1,1-dioxo-2,3-dihydro-1H-1λ^6-benzo[d]isothiazol-3-yl)-indol-1-yl]-acetic acid], for which the inhibitory constant (Ki) was < 10000 nM. Turning to `Cc1ccc2c(c1)c(C1c3ccccc3S(=O)(=O)N1Cc1nc3ccccc3s1)cn2CC(=O)O` (stereo not drawn) [Example 48, [3-(2-Benzothiazol-2-ylmethyl-1,1-dioxo-2,3-dihydro-1H-1λ^6-benzo[d]isothiazol-3-yl)-5-methyl-indol-1-yl]-acetic acid], the inhibitory constant (Ki) is < 1000 nM.

With `Cc1c(C2c3ccccc3S(=O)(=O)N2CC2COc3ccccc3O2)c2ccccc2n1CC(=O)O` (stereo not drawn) [Example 41, {3-[2-(2,3-Dihydro-benzo[1,4]dioxin-2-ylmethyl)-1,1-dioxo-2,3-dihydro-1H-1λ^6-benzo[d]isothiazol-3-yl]-2-methyl-indol-1-yl}-acetic acid], the inhibition constant (Ki) was < 1000 nM. The figure for `Cc1noc(C)c1CN1C(=O)c2ccccc2C1c1c(C)n(CC(=O)O)c2ccccc12` (stereo not drawn) [Example 68, {3-[2-(3,5-Dimethyl-isoxazol-4-ylmethyl)-3-oxo-2,3-dihydro-1H-isoindol-1-yl]-2-methyl-indol-1-yl}-acetic acid] is < 1000 nM. With `CCOC(=O)CN1C(c2c(C)n(CC(=O)O)c3ccccc23)c2ccccc2S1(=O)=O` (stereo not drawn) [Example 40, [3-(2-Ethoxycarbonylmethyl-1,1-dioxo-2,3-dihydro-1H-1λ^6benzo[d]isothiazol-3-yl)-2-methyl-indol-1-yl]-acetic acid] the figure was < 1000 nM; with `Cc1c(C2c3ccccc3S(=O)(=O)N2Cc2cccc(C(F)(F)F)c2)c2ccccc2n1CC(=O)O` (stereo not drawn) [Example 43, {3-[1,1-Dioxo-2-(3-trifluoromethyl-benzyl)-2,3-dihydro-1H-1λ^6-benzo[d]isothiazol-3-yl]-2-methyl-indol-1-yl}-acetic acid], < 1000 nM; with `O=C(O)Cn1cc(C2c3ccccc3S(=O)(=O)N2Cc2ccccc2)c2ccccc21` (stereo not drawn) [Example 28, [3-(2-Benzyl-1,1-dioxo-2,3-dihydro-1H-1λ^6-benzo[d]isothiazol-3-yl)-indol-1-yl]-acetic acid], < 10000 nM. Consider `Cc1noc(C)c1CN1C(c2cn(CC(=O)O)c3ccccc23)c2ccccc2S1(=O)=O` (stereo not drawn) [Example 35, {3-[2-(3,5-Dimethyl-isoxazol-4-ylmethyl)-1,1-dioxo-2,3-dihydro-1H-1λ^6benzo[d]isothiazol-3-yl]-indol-1-yl}-acetic acid], for which the Ki is < 100 nM. With `COc1cccc(CN2N=C(c3c(C)n(CC(=O)O)c4ccc(F)cc34)c3ccccc3S2(=O)=O)c1` [Example 79, {3-[2-(3-Methoxy-benzyl)-1,1-dioxo-1,2-dihydro-1λ^6-benzo[e][1,2,3]thiadiazin-4-yl]-5-fluoro-2-methyl-indol-1-yl}-acetic acid] the figure was < 1000 nM. The figure for `COCCCN1C(c2cn(CC(=O)O)c3ccc(C)cc23)c2ccccc2S1(=O)=O` (stereo not drawn) [Example 52, {3-[2-(3-Methoxy-propyl)-1,1-dioxo-2,3-dihydro-1H-1λ^6-benzo[d]isothiazol-3-yl]-5-methyl-indol-1-yl}-acetic acid] is < 10000 nM; for `Cc1nc(CN2C(c3c(C)n(CC(=O)O)c4ccccc34)c3ccccc3S2(=O)=O)cs1` (stereo not drawn) [Example 42, {2-Methyl-3-[2-(2-methyl-thiazol-4-ylmethyl)-1,1-dioxo-2,3-dihydro-1H-1λ^6benzo[d]isothiazol-3-yl]-indol-1-yl}-acetic acid] it is < 1000 nM; for `CCN1N=C(c2c(C)n(CC(=O)O)c3ccc(F)cc23)c2ccccc2S1(=O)=O` [Example 91, [3-(2-Ethyl-1,1-dioxo-1,2-dihydro-1λ^6-benzo[e][1,2,3]thiadiazin-4-yl)-5-fluoro-2-methyl-indol-1-yl]-acetic acid] it is < 100 nM. The figure for `Cc1ccc2c(c1)c(C1c3ccccc3S(=O)(=O)N1Cc1cccc(C(F)(F)F)c1)cn2CC(=O)O` (stereo not drawn) [Example 51, {3-[1,1-Dioxo-2-(3-trifluoromethyl-benzyl)-2,3-dihydro-1H-1λ^6-benzo[d]isothiazol-3-yl]-5-methyl-indol-1-yl}-acetic acid] is < 10000 nM; for `Cc1c(C2=NN(Cc3cccc(C(F)(F)F)c3)S(=O)(=O)c3ccccc32)c2cc(F)ccc2n1CC(=O)O` [Example 85, {3-[2-(3-Trifluoromethyl-benzyl)-1,1-dioxo-1,2-dihydro-1λ^6-benzo[e][1,2,3]thiadiazin-4-yl]-5-fluoro-2-methyl-indol-1-yl}-acetic acid] it is < 1000 nM. As for `Cc1c(C2=NN(CCc3ccccc3)S(=O)(=O)c3ccccc32)c2ccccc2n1CC(=O)O` [Example 19, [3-(1,1-Dioxo-2-phenethyl-1,2-dihydro-1λ^6-benzo[e][1,2,3]thiadiazin-4-yl)-2-methyl-indol-1-yl]-acetic acid], the Ki is < 100 nM. With `Cc1c(C2=NN(Cc3ccccc3)C(=O)C(C)(C)C2)c2cc(Cl)ccc2n1CC(=O)O` [Example 73, [3-(1-Benzyl-5,5-dimethyl-6-oxo-1,4,5,6-tetrahydro-pyridazin-3-yl)-5-chloro-2-methyl-indol-1-yl]-acetic acid] the figure was < 100 nM; with `Cc1c(C2=NN(Cc3ccccc3Cl)S(=O)(=O)c3ccccc32)c2cc(F)ccc2n1CC(=O)O` [Example 76, {3-[2-(2-Chloro-benzyl)-1,1-dioxo-1,2-dihydro-1λ^6-benzo[e][1,2,3]thiadiazin-4-yl]-5-fluoro-2-methyl-indol-1-yl}-acetic acid], < 100 nM; with `Cc1c(-c2ccc(=O)n(Cc3ccccc3)n2)c2cc(Cl)ccc2n1CC(=O)O` [Example 21, [3-(1-Benzyl-6-oxo-1,6-dihydro-pyridazin-3-yl)-5-chloro-2-methyl-indol-1-yl]-acetic acid], < 100 nM.

As for `Cc1c(-c2nn(CCOc3ccc(Cl)cc3)c(=O)c3ccccc23)c2cc(Cl)ccc2n1CC(=O)O` [Example 25, (5-Chloro-3-{3-[2-(4-chloro-phenoxy)-ethyl]-4-oxo-3,4-dihydro-phthalazin-1-yl}-2-methyl-indol-1-yl)-acetic acid], the Ki is < 100 nM. The figure for `Cc1noc(C)c1CN1C(C)(c2c(C)n(CC(=O)O)c3ccccc23)c2ccccc2S1(=O)=O` (stereo not drawn) [Example 65, {3-[2-(3,5-Dimethyl-isoxazol-4-ylmethyl)-3-methyl-1,1-dioxo-2,3-dihydro-1H-1λ^6-benzo[d]isothiazol-3-yl]-2-methyl-indol-1-yl}-acetic acid] is < 100 nM. The figure for `CCCN1N=C(c2c(C)n(CC(=O)O)c3ccc(F)cc23)c2ccccc2S1(=O)=O` [Example 92, [3-(2-Propyl-1,1-dioxo-1,2-dihydro-1λ^6-benzo[e][1,2,3]thiadiazin-4-yl)-5-fluoro-2-methyl-indol-1-yl]-acetic acid] is < 100 nM; for `Cc1c(C2=NN(CCc3ccccc3)C(=O)[C@@H]3CC=CC[C@H]23)c2ccccc2n1CC(=O)O` (stereo in doubt) [Example 72, [2-Methyl-3-(4-oxo-3-phenethyl-3,4,4a,5,8,8a-hexahydro-phthalazin-1-yl)-indol-1-yl]-acetic acid] it is < 100 nM. The figure for `Cc1c(C2c3ccccc3S(=O)(=O)N2CCC(C)C)c2ccccc2n1CC(=O)O` (stereo not drawn) [Example 44, {2-Methyl-3-[2-(3-methyl-butyl)-1,1-dioxo-2,3-dihydro-1H-1λ^6-benzo[d]isothiazol-3-yl]-indol-1-yl}-acetic acid] is < 1000 nM; for `Cc1c(-c2nn(Cc3nc4ccccc4s3)c(=O)c3ccccc23)c2cc(Cl)ccc2n1CC(=O)O` [Example 26, [3-(3-Benzothiazol-2-ylmethyl-4-oxo-3,4-dihydro-phthalazin-1-yl)-5-chloro-2-methyl-indol-1-yl]-acetic acid] it is < 100 nM.
